# Experimental data published in US20020156094A1, “Sulfonamide interleukin-1beta converting enzyme inhibitors” (Warner-Lambert Company, priority 1996, published 2002).
# Values joined by “and” are separate entries in the source; they are usually repeats but may differ in a detail not shown here. Equal entries are not always repeated.
# Columns and labels:
# [1] = target: T1, ICE (interleukin-1β converting enzyme, Caspase-1) (Homo sapiens, UniProt P29466); experiment: ICE Ki fluorescence assay (Ac-Tyr-Val-Ala-Asp-AMC hydrolysis); type: biochemical; conditions: ICE 0.24 nM, 15 μM Ac-Tyr-Val-Ala-Asp-AMC, reversible competitive model
# T1 sequence (P29466 120-297 limits assumed): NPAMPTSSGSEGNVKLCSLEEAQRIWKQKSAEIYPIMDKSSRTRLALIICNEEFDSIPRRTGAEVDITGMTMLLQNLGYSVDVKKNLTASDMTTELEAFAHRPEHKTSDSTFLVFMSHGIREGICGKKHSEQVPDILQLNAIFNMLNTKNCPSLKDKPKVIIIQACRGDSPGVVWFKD
# T1 sequence (P29466 317-404 limits assumed): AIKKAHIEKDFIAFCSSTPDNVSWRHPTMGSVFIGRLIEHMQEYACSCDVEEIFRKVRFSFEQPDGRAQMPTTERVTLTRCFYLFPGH
# Experimental: Substrate hydrolysis is monitored for 300 seconds by observing the fluorescence of released AMC using excitation at 380 nm and emission at 460 nm. Mean rates of substrate hydrolysis are evaluated by linear-regression analysis of the fluorescence vs time traces. To evaluate Ki, plots of percent inhibition vs inhibitor concentration are fit by non-linear regression to a reversible, competitive model: [formula]
# Where the competition factor (1+[S]/KM)=2.
# [2] = target: T1, ICE (interleukin-1β converting enzyme, Caspase-1); experiment: ICE Colorimetric Dose-Response (IC50) Assay; type: biochemical; conditions: ICE approx. 24 nM, 60 min preincubation, 50 μM Ac-Tyr-Val-Ala-Asp-pNA, 25° C.
# Experimental: ICE Colorimetric Dose-Response (IC50) Assay
# (§1) Diluted inhibitor stocks are prepared by two-fold serial dilution from a primary stock whose concentration is selected (based on screening results or on prior attempts at IC50 evaluation) to achieve approximately 95% inhibition in the most concentrated well. Aliquots of each dilution are transferred to a microtitre plate in triplicate.
# (§2) ICE enzyme is diluted to approximately 24 nM in HGE buffer (100 mM HEPES pH 7.5, 0.5 mM EDTA, 20% glycerol, 0.1% Bovine Serum Albumin (BSA)), and activated by adding dithiothreitol (DTT) to a final concentration of 5 mM. The activated enzyme is then aliquoted into wells containing inhibitor or vehicle, and the plate is preincubated for 60 minutes at ambient temperature. Substrate (Ac-Tyr-Val-Ala-Asp-pNA) is added to each well to a final concentration of 50 μM, and plates are placed in the microtitre plate-reader thermostated to 25° C. Beginning 5 minutes after addition of substrate, absorbance (405 nm) of wells is monitored for 1 hour, and activity is calculated as the mean rate of change in absorbance during this interval.
# [3] = target: T2, Ich-2 (Caspase-4) (Homo sapiens, UniProt P49662); experiment: Ich-2 (Caspase-4) Colorimetric Dose-Response (IC50) Assay; type: biochemical; conditions: enzyme 64 nM, substrate Ac-Leu-Glu-Val-Asp-pNA
# T2 sequence (P49662 81-270 limits assumed): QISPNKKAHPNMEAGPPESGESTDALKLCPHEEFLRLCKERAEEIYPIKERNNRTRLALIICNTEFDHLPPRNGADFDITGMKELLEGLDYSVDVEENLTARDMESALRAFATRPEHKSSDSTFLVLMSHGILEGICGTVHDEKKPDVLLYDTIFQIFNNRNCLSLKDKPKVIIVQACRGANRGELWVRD
# T2 sequence (P49662 290-377 limits assumed): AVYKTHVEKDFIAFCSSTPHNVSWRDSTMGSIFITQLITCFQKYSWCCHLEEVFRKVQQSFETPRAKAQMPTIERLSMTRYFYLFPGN
# Experimental: as §1, §2
# Ich-2 (Caspase-4) Colorimetric Dose-Response (IC50) Assay
# Inhibition of Ich-2 enzyme is assayed as described above for ICE, except that enzyme is used at 64 nM, and 60 µM of the Ich-2-specific substrate Ac-Leu-Glu-Val-Asp-pNA is used instead of the ICE substrate Ac-Tyr-Val-Ala-Asp-pNA.
Ki [1],melting point [°C],IC50 [2] [µM],IC50 [3] [µM],SMILES
34.5 µM and 32 µM,96 to 104,245,8590,"O=C(O)CC(NC(=O)OCc1ccccc1)C(=O)CNS(=O)(=O)CCCc1ccccc1 (stereo not shown) [Example 2b, 3-Benzloxycarbonylamino-4-oxo-5-(3-phenylpropane-1-sulfonylamino)-pentanoic acid]"
0.00061 µM,,0.002,3.2,"CC(C)C(NC(=O)C(CCC(=O)O)NC(=O)OCc1ccccc1)C(=O)NC(CC(=O)O)C(=O)CNS(=O)(=O)CC12CCC(CC1=O)C2(C)C (stereo not shown) [Example 4f, 3-[2-(2-Benzyloxycarbonylamino-4-carboxy-butyrylamino)-3-methyl-butyrylamino]-5-(7,7-dimethyl-2-oxo-bicyclo[2.2.1]hept-1-ylmethanesulfonylamino)-4-oxo-pentanoic acid]"
20 µM,,165,252,"O=C(O)C[C@H](NC(=O)CN1CCc2ccccc2C1=O)C(=O)CNS(=O)(=O)CC12CCC(CC1)C2 [Example 5b, (S)-5-(Bicyclo[2.2.1]hept-1-ylmethanesulfonylamino)-4-oxo-3-[2-(1-oxo-3,4-dihydro-1H-isoquinolin-2-yl)-acetylamino]-pentanoic acid]"
